Key:
Type in all cases: in vivo
[1] = system: foxtail, giant (Setaria faberii); assay: Test A postemergence, giant foxtail; settings: 0 to 100 scale; for Plant response rating, Foxtail, Giant: 0 no effect, 100 complete control
In short: (§1)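 Seeds sown in loam–sand blend received a directed soil spray of test chemical in non-phytotoxic solvent with surfactant (preemergence); postemergence plants at 2–10 cm, one- to two-leaf stage, were sprayed with the same formulation. Injury rated visually versus untreated controls after ~10 d in greenhouse, 0–100 scale.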

[2] = system: barnyardgrass (Echinochloa crus-galli); assay: Test A preemergence, barnyardgrass; settings: 0 to 100 scale, 0 is no effect, 100 is complete control
In short: as §1

[3] = system: ragweed (common ragweed, Ambrosia elatior); assay: Test A postemergence, ragweed; settings: 0 to 100 scale; for Plant response rating, Ragweed: 0 no effect, 100 complete control
In short: as §1

[4] = system: ryegrass, Italian (Lolium multiflorum); assay: Test A preemergence, Italian ryegrass; settings: 0 to 100 scale, 0 is no effect, 100 is complete control
In short: as §1

[5] = system: barnyardgrass (Echinochloa crus-galli); assay: Test B flooded paddy test, barnyardgrass; settings: Flood, 250 g ai/ha, applied to paddy water, 2-leaf stage, visual evaluation after 13 to 15 d
In short: (§2)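 Plants grown to 2-leaf stage. Compounds applied directly into paddy water flooded 3 cm above soil, with that depth kept throughout. After 13–15 d in greenhouse, visual rating versus controls on a 0–100 scale (0 no effect, 100 complete control).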

[6] = system: ryegrass, Italian (Lolium multiflorum); assay: Test A postemergence, Italian ryegrass; settings: 0 to 100 scale; for Plant response rating, Ryegrass, Italian: 0 no effect, 100 complete control
In short: as §1

corn (Zea mays) = assay: Test A postemergence, corn; settings: 0 to 100 scale; for Plant response rating, Corn: 0 no effect, 100 complete control
In short: as §1

[7] = system: galium (catchweed bedstraw, Galium aparine); assay: Test A postemergence, galium; settings: 0 to 100 scale; for Plant response rating, Galium: 0 no effect, 100 complete control
In short: as §1

[8] = system: barnyardgrass (Echinochloa crus-galli); assay: Test A postemergence, barnyardgrass; settings: 0 to 100 scale; for Plant response rating, Barnyardgrass: 0 no effect, 100 complete control
In short: as §1

[9] = system: blackgrass (Alopecurus myosuroides); assay: Test A postemergence, blackgrass; settings: 0 to 100 scale; for Plant response rating, Blackgrass: 0 no effect, 100 complete control
In short: as §1

[10] = system: foxtail, giant (Setaria faberii); assay: Test A preemergence, giant foxtail; settings: 0 to 100 scale, 0 is no effect, 100 is complete control
In short: as §1

[11] = system: sedge, umbrella (small-flower umbrella sedge, Cyperus difformis); assay: Test B flooded paddy test, umbrella sedge; settings: Flood, 250 g ai/ha, applied to paddy water, 2-leaf stage, visual evaluation after 13 to 15 d
In short: as §2

kochia (Kochia scoparia) [12] = assay: Test A postemergence, kochia; settings: 0 to 100 scale; for Plant response rating, Kochia: 0 no effect, 100 complete control
In short: as §1

[13] = system: ducksalad (Heteranthera limosa); assay: Test B flooded paddy test, ducksalad; settings: Flood, 250 g ai/ha, applied to paddy water, 2-leaf stage, visual evaluation after 13 to 15 d
In short: as §2

rice (Oryza sativa) = assay: Test B flooded paddy test, rice; settings: Flood, 250 g ai/ha, applied to paddy water, 2-leaf stage, visual evaluation after 13 to 15 d
In short: as §2

[14] = system: wheat (Triticum aestivum); assay: Test A postemergence, wheat; settings: 0 to 100 scale; for Plant response rating, Wheat: 0 no effect, 100 complete control
In short: as §1

[15] = system: pigweed (Amaranthus retroflexus); assay: Test A preemergence, pigweed; settings: 0 to 100 scale, 0 is no effect, 100 is complete control
In short: as §1

kochia (Kochia scoparia) [16] = assay: Test A preemergence, kochia; settings: 0 to 100 scale, 0 is no effect, 100 is complete control
In short: as §1

[17] = system: ragweed (common ragweed, Ambrosia elatior); assay: Test A preemergence, ragweed; settings: 0 to 100 scale, 0 is no effect, 100 is complete control
In short: as §1

[18] = system: pigweed (Amaranthus retroflexus); assay: Test A postemergence, pigweed; settings: 0 to 100 scale; for Plant response rating, Pigweed: 0 no effect, 100 complete control
In short: as §1

[19] = 500 g ai/ha, 0 is no effect, 100 is complete control

Row | SMILES | Plant response rating, Foxtail, Giant ([1]; 125 g ai/ha) | Barnyardgrass plant response rating ([2]; 125 g ai/ha) | Barnyardgrass plant response rating ([2]; 500 g ai/ha) | Plant response rating, Ragweed ([3]; 125 g ai/ha) | Ryegrass, Italian plant response rating ([4]; 125 g ai/ha) | Ryegrass, Italian plant response rating ([4]; 500 g ai/ha) | Plant response rating, Barnyardgrass (0 to 100 scale, 0 is no effect, 100 is complete control) [5] | Plant response rating, Ryegrass, Italian ([6]; 125 g ai/ha) | Plant response rating, Corn (corn (Zea mays); 125 g ai/ha) | Plant response rating, Galium ([7]; 125 g ai/ha) | Plant response rating, Barnyardgrass ([8]; 125 g ai/ha) | Plant response rating, Blackgrass ([9]; 125 g ai/ha) | Foxtail, Giant plant response rating ([10]; 125 g ai/ha) | Foxtail, Giant plant response rating ([10]; 500 g ai/ha) | Plant response rating, Sedge, Umbrella (0 to 100 scale, 0 is no effect, 100 is complete control) [11] | Plant response rating, Kochia (kochia (Kochia scoparia) [12]; 125 g ai/ha) | Plant response rating, Ducksalad (0 to 100 scale, 0 is no effect, 100 is complete control) [13] | Plant response rating, Rice (0 to 100 scale, 0 is no effect, 100 is complete control) (rice (Oryza sativa)) | Plant response rating, Wheat ([14]; 125 g ai/ha) | Pigweed plant response rating ([15]; 125 g ai/ha) | also measured
1 | CC(C)[C@@H](Nc1ncc(C(F)(F)F)c(N)n1)c1cc2ccccc2s1 [Compound 50] | 0 | 0 | 10 | 0 | 0 | 0 | 0 | 30 | 0 | 10 | 0 | 0 | 0 | 10 | 0 | 20 | 0 | 0 | 0 | 0 | Foxtail, Giant plant response rating [1, 19]: 40; Ragweed plant response rating [3, 19]: 30; Ryegrass, Italian plant response rating [6, 19]: 0; Corn plant response rating (corn (Zea mays); [19]): 10; Galium plant response rating [7, 19]: 20; Barnyardgrass plant response rating [8, 19]: 0; Blackgrass plant response rating [9, 19]: 0; Kochia plant response rating (kochia (Kochia scoparia) [12]; [19]): 60; Wheat plant response rating [14, 19]: 0; Pigweed plant response rating ([15]; 500 g ai/ha): 40; Kochia plant response rating (kochia (Kochia scoparia) [16]; 125 g ai/ha): 40; Kochia plant response rating (kochia (Kochia scoparia) [16]; 500 g ai/ha): 60; Ragweed plant response rating ([17]; 125 g ai/ha): 0; Ragweed plant response rating ([17]; 500 g ai/ha): 0; Plant response rating, Pigweed ([18]; 125 g ai/ha): 60; Pigweed plant response rating [18, 19]: 90
2 | C[C@@H](Nc1ncc(C(F)(F)F)c(N)n1)c1coc2cc(Cl)ccc12 [Compound 55] | 20 | 80 | 80 | 50 | 20 | 70 | 30 | 30 | 10 | 70 | 30 | 0 | 50 | 90 | 98 | 70 | 70 | 0 | 0 | 80 | Plant response rating, Foxtail, Giant ([1]; 500 g ai/ha): 90; Plant response rating, Ragweed ([3]; 500 g ai/ha): 80; Plant response rating, Ryegrass, Italian ([6]; 500 g ai/ha): 30; Plant response rating, Corn (corn (Zea mays); 500 g ai/ha): 0; Plant response rating, Galium ([7]; 500 g ai/ha): 90; Plant response rating, Barnyardgrass ([8]; 500 g ai/ha): 70; Plant response rating, Blackgrass ([9]; 500 g ai/ha): 20; Plant response rating, Kochia (kochia (Kochia scoparia) [12]; 500 g ai/ha): 90; Plant response rating, Wheat ([14]; 500 g ai/ha): 0; Pigweed plant response rating ([15]; 500 g ai/ha): 100; Kochia plant response rating (kochia (Kochia scoparia) [16]; 125 g ai/ha): 40; Kochia plant response rating (kochia (Kochia scoparia) [16]; 500 g ai/ha): 90; Ragweed plant response rating ([17]; 125 g ai/ha): 100; Ragweed plant response rating ([17]; 500 g ai/ha): 100; Plant response rating, Pigweed ([18]; 125 g ai/ha): 100; Plant response rating, Pigweed ([18]; 500 g ai/ha): 100
3 | C[C@H](Nc1ncc(C(F)(F)F)c(N)n1)c1coc2ccc(F)cc12 [Compound 56] | 10 | 70 | 70 | 0 | 0 | 0 | 0 | 0 | 0 | 0 | 50 | 0 | 0 | 0 | 0 | 0 | 0 | 0 | 0 | 0 | Plant response rating, Foxtail, Giant ([1]; 500 g ai/ha): 20; Plant response rating, Ragweed ([3]; 500 g ai/ha): 30; Plant response rating, Ryegrass, Italian ([6]; 500 g ai/ha): 0; Plant response rating, Corn (corn (Zea mays); 500 g ai/ha): 10; Plant response rating, Galium ([7]; 500 g ai/ha): 0; Plant response rating, Barnyardgrass ([8]; 500 g ai/ha): 30; Plant response rating, Blackgrass ([9]; 500 g ai/ha): 0; Plant response rating, Kochia (kochia (Kochia scoparia) [12]; 500 g ai/ha): 40; Plant response rating, Wheat ([14]; 500 g ai/ha): 0; Pigweed plant response rating ([15]; 500 g ai/ha): 30; Kochia plant response rating (kochia (Kochia scoparia) [16]; 125 g ai/ha): 0; Kochia plant response rating (kochia (Kochia scoparia) [16]; 500 g ai/ha): 0; Ragweed plant response rating ([17]; 125 g ai/ha): 20; Ragweed plant response rating ([17]; 500 g ai/ha): 80; Plant response rating, Pigweed ([18]; 125 g ai/ha): 20; Plant response rating, Pigweed ([18]; 500 g ai/ha): 60

From patent publication US20220119354A1, “DIAMINO-SUBSTITUTED PYRIDINES AND PYRIMIDINES AS HERBICIDES” (FMC Corporation, priority 2019, published 2022)
